Data taken from US20020002277A1, “Inhibitors of platelet activation and recruitment” (priority 1998, published 2002).

Columns and labels:
murine platelets = assay: Ex vivo aggregation of murine platelets after treatment; assay type: in vivo, C57BL/6J mice; conditions: PRP 1 hour after solCD39 4 mg/kg or aspirin 5 mg/kg
Description: C57BL/6J mice (6-8 wk) were obtained from Jackson Laboratories (Bar Harbor, Me.). […] 80 μL of 3.8% trisodium citrate was added to each mL of blood. […] The PRP contained 400-700×10^3 platelets per μL. All experiments were completed within 2 hours of blood collection. PRP (200 μL) was preincubated, for 3 min. at 37° C., with 100 μL Tris-buffered saline buffer ([…], 5 mM glucose, pH 7.4) in an aggregometer cuvette (Lumiaggregometer; Chrono-Log, Havertown, Pa.), and the platelet agonists ADP, collagen, or sodium arachidonate were added at the final concentrations indicated.

[1] = Murine model of stroke (middle cerebral artery occlusion); assay type: in vivo, C57BL/6J mice
Description: Anesthetized mice were maintained at 37±2° C. during and for 90 min following surgery. A midline neck incision was made and the right carotid artery exposed. Middle cerebral artery occlusion was accomplished by advancing a 13-mm heat-blunt tipped 6-0 nylon suture via an arteriotomy in the external carotid stump. The external carotid artery was cauterized to secure hemostasis, and arterial flow re-established. […] Surgical staples were used for wound closure.

platelets = assay: Ex vivo additive inhibition of platelet aggregation in platelet rich plasma from patients; assay type: cell-based, human; conditions: PRP from patients receiving the drug (clopidogrel, ticlopidine, abciximab groups also received aspirin)
Description: Each group consisted of three to six patients. […] SoICD39 (10 μg/ml or 100 μg/ml) was then added and the additional inhibition of platelet activation (over baseline, in response to the platelet agonists) was measured in each of the five groups.

[2] = Phosphate release assay for ATPase activity; assay type: biochemical; conditions: for Activity (pmol ATP/min/μg) × 10^3: specific activity based on ELISA concentration, COS-1 1x supernatant, 10 cm plates, 5 days; for CPM × 10^3 (net counts), ATPase activity in CM: 5 days (Table 3)
Description: This example describes an ATPase assay that may be used to track enzyme activity. Samples (approximately 100 μl of either concentrated CM or purified polypeptide) are combined with 20 μl of 10X assay buffer (200 mM HEPES, 1.2 M NaCl, 50 mM KCl, 15 mM CaCl2, 15 mM MgCl2 and 3 mM ATP) and sterile water is added to a final volume of 200 μl. Radiolabeled ATP (0.8 μCi γ [^32P] ATP; Amersham, Arlington Heights, Ill.) is added and the mixture incubated for 20 minutes at 37° C. Stop mix (0.5 ml of 20% activated charcoal/1 M HCl) is added and the reaction is placed on ice for 10 minutes. After centrifugation (14K rpm for 10 minutes), the supernatant is assayed for free ^32P using a scintillation counter. Data are expressed as raw counts or net counts, or as picomoles of ATP degraded per minute.
The transfections were repeated and the CM (10, 20 and 30 μL, unconcentrated) was assayed essentially as described in Example 7. […] ATPase levels in CM from COS-1 cells transfected with pIL2LFlagSolCD39 increased with time in culture over at least 4 days post-transfection.
To determine whether activity was affected by removal of the N-terminal FLAG® tag, COS-1 cells were transfected with pIL2LFlagSolCD39 and pIL2LSolCD39 and supernatants (sups) were harvested after 5 days. Samples of 10, 20 and 30 μL of 1x sups were assayed for ATPase activity as described in Example 7.
The expression of Trim1 and Trim2 constructs was analyzed in COS-1 cells cultured in 10 cm plates. After 5 days of incubation, 1x supernatants were examined via ELISA (using anti-CD39) and the phosphate-release assay described in Example 7. […] Expression levels, however, appeared to be reduced 3-4 fold.

[3] = Enzymatic (ATPase and ADPase) activity of site-directed CD39 mutants; assay type: biochemical; conditions: alanine replacement mutant
Description: Mutants were assayed for enzymatic (ATPase and ADPase) and platelet inhibitory (dose-dependent inhibition of platelet aggregation) activities. For one series of mutants, residues within the conserved apyrase regions were replaced with alanine.

| Activity (pmol ATP/min/μg) × 10^3 [2] [pmol ATP/min/μg × 10^3] | Molecule | Platelet aggregation, baseline (platelets; agonist ADP) [arbitrary units] | Platelet aggregation, baseline (platelets; agonist Collagen) [arbitrary units] | Platelet aggregation, baseline (platelets; agonist TRAP) [arbitrary units] | further results |
| --- | --- | --- | --- | --- | --- |
|  | CC(=O)Oc1ccccc1C(=O)O [aspirin, acetylsalicylic acid] | 69 ± 5 | 62 ± 8 | 66 ± 6 | ex vivo platelet aggregation, collagen (murine platelets; 2.5 μg/ml collagen): strongly aggregated; ex vivo platelet aggregation, ADP (murine platelets; 10 μM ADP): strongly aggregated; ex vivo platelet aggregation, arachidonate (murine platelets; 0.1 mM sodium arachidonate): only blocked platelet reactivity to arachidonate; postischemic cerebral blood flow ([1]; 24 hours after stroke induction): no improvement was seen in postischemic cerebral blood flow; intracerebral hemorrhage following stroke ([1]; measured spectrophotometrically, any dose of solCD39 tested, aspirin 5 mg/kg): increased intracerebral hemorrhage; cerebral infarct volume ([1]; preoperative administration, solCD39 4 & 8 mg/kg, aspirin 5 mg/kg): tendency to decrease cerebral infarct volume, although this effect was not statistically significant |
|  | COC(=O)[C@H](c1ccccc1Cl)N1CCc2sccc2C1 [Clopidogrel, clopidogrel] | 58 ± 6 | 57 ± 9 | 51 ± 2 |  |
|  | Abciximab: platelet-specific chimeric antibody, glycoprotein IIb/IIIa antagonist (trade name ReoPro) (antibody, chains of the INN, looked up, V domains shown, Fab) VH: EVQLQQSGTVLARPGASVKMSCEASGYTFTNYWMHWVKQRPGQGLEWIGAIYPGNSDTSYIQKFKGKAKLTAVTSTTSVYMELSSLTNEDSAVYYCTLYDGYYVFAYWGQGTLVTVSA VL: EIVLTQSPVTLSVTPGDSVSLSCRASRDISNNLHWFQQTSHESPRLLIKYASQSMSGIPSRFSGSGSGTDFTLSINSVETEDFGMYFCQQTNSWPYTFGGGTKLEIK | 0 ± 0 | 0 ± 0 | 46 ± 6 |  |
| 8.38 | pIL2LTrim1: huIL2 leader joined to solCD39 with an intervening alanine residue (SEQ ID NO:27) (protein) MALWIDRMQLLSCIALSLALVTNSATQNKALPENVKYGIVLDAGSSHTSLYIYKWPAEKENDTGVVHQVEECRVKGPGISKFVQKVNEIGIYLTDCMERAREVIPRSQHQETPVYLGATAGMRLLRMESEELADRVLDVVERSLSNYPFDFQGARIITGQEEGAYGWITINYLLGKFSQKTRWFSIVPYETNNQETFGALDLGGASTQVTFVPQNQTIESPDNALQFRLYGKDYNVYTHSFLCYGKDQALWQKLAKDIQVASNEILRDPCFHPGYKKVVNVSDLYKTPCTKRFEMTLPFQQFEIQGIGNYQQCHQSILELFNTSYCPYSQCAFNGIFLPPLQGDFGAFSAFYFVMKFLNLTSEKVSQEKVTEMMKKFCAQPWEEIKTSYAGVKEKYLSEYCFSGTYILSLLLQGYHFTADSWEHIHFIGKIQGSDAGWTLGYMLNLTNMIPAEQPLSTPLSHST |  |  |  |  |
| 6.67 | pIL2LTrim2: huIL2 leader with an intervening Ala-Ser-Ser linker preceding solCD39 (protein, left off: small tags and cut ends) TQNKALPENVKYGIVLDAGSSHTSLYIYKWPAEKENDTGVVHQVEECRVKGPGISKFVQKVNEIGIYLTDCMERAREVIPRSQHQETPVYLGATAGMRLLRMESEELADRVLDVVERSLSNYPFDFQGARIITGQEEGAYGWITINYLLGKFSQKTRWFSIVPYETNNQETFGALDLGGASTQVTFVPQNQTIESPDNALQFRLYGKDYNVYTHSFLCYGKDQALWQKLAKDIQVASNEILRDPCFHPGYKKVVNVSDLYKTPCTKRFEMTLPFQQFEIQGIGNYQQCHQSILELFNTSYCPYSQCAFNGIFLPPLQGDFGAFSAFYFVMKFLNLTSEKVSQEKVTEMMKKFCAQPWEEIKTSYAGVKEKYLSEYCFSGTYILSLLLQGYHFTADSWEHIHFIGKIQGSDAGWTLGYMLNLTNMIPAEQPLSTPLSHST |  |  |  |  |
|  | S218A mutant: CD39 mutant, Serine218 replaced with alanine (protein, UniProt P49961 1-510, looked up, variant S218A) Ectonucleoside triphosphate …: MEDTKESNVKTFCSKNILAILGFSSIIAVIALLAVGLTQNKALPENVKYGIVLDAGSSHTSLYIYKWPAEKENDTGVVHQVEECRVKGPGISKFVQKVNEIGIYLTDCMERAREVIPRSQHQETPVYLGATAGMRLLRMESEELADRVLDVVERSLSNYPFDFQGARIITGQEEGAYGWITINYLLGKFSQKTRWFSIVPYETNNQETFGALDLGGAATQVTFVPQNQTIESPDNALQFRLYGKDYNVYTHSFLCYGKDQALWQKLAKDIQVASNEILRDPCFHPGYKKVVNVSDLYKTPCTKRFEMTLPFQQFEIQGIGNYQQCHQSILELFNTSYCPYSQCAFNGIFLPPLQGDFGAFSAFYFVMKFLNLTSEKVSQEKVTEMMKKFCAQPWEEIKTSYAGVKEKYLSEYCFSGTYILSLLLQGYHFTADSWEHIHFIGKIQGSDAGWTLGYMLNLTNMIPAEQPLSTPLSHSTYVFLMVLFSLVLFTVAIIGLLIFHKPSYFWKDMV |  |  |  | ADPase activity retained [3]: less than 10% |
| 5.67 | pIL2LSolCD39: untagged soluble human CD39 with huIL2 leader, 12 mature IL2 residues and three amino acid linker (SEQ ID NO:7) (protein) MALWIDRMQLLSCIALSLALVTNSAPTSSSTKKTQLTSSTQNKALPENVKYGIVLDAGSSHTSLYIYKWPAEKENDTGVVHQVEECRVKGPGISKFVQKVNEIGIYLTDCMERAREVIPRSQHQETPVYLGATAGMRLLRMESEELADRVLDVVERSLSNYPFDFQGARIITGQEEGAYGWITINYLLGKFSQKTRWFSIVPYETNNQETFGALDLGGASTQVTFVPQNQTIESPDNALQFRLYGKDYNVYTHSFLCYGKDQALWQKLAKDIQVASNEILRDPCFHPGYKKVVNVSDLYKTPCTKRFEMTLPFQQFEIQGIGNYQQCHQSILELFNTSYCPYSQCAFNGIFLPPLQGDFGAFSAFYFVMKFLNLTSEKVSQEKVTEMMKKFCAQPWEEIKTSYAGVKEKYLSEYCFSGTYILSLLLQGYHFTADSWEHIHFIGKIQGSDAGWTLGYMLNLTNMIPAEQPLSTPLSHST |  |  |  | CPM × 10^3 (net counts), ATPase activity in CM ([2]; 10 μL 1x COS-1 supernatant): 20.1 CPM × 10^3; CPM × 10^3 (net counts), ATPase activity in CM ([2]; 20 μL 1x COS-1 supernatant): 36.0 CPM × 10^3; CPM × 10^3 (net counts), ATPase activity in CM ([2]; 30 μL 1x COS-1 supernatant): 51.0 CPM × 10^3 |
